From patent US9770170B2, “Methods for diagnosing, treating, and monitoring chronic inflammatory response syndrome” (priority 2012, dated 2017)

Legend:
[1] = tested on: patients with clinically-confirmed CIRS-WDB; assay: Open-label VIP replacement trial: physician recorded symptoms; format: in vivo, human; conditions: for SX (symptoms) mean value: Control 2.9, Base 29.8, AC2 17.8
Text: (§1) 3A. Treatment: Human research approval for this study was provided by Copernicus Group IRB, Cary, N.C. […] Further, certain patients were excluded from the trial for the following reason. […] Patients with these findings were excluded from the formal replacement trial.
(§2) All patients enrolled in the trial were confirmed to be exposed to WDB by observation of illness acquisition solely following water intrusion followed by either (1) visible microbial growth; (2) specification of molds by QPCR DNA testing; or (3) musty smells. All patients met the case criteria established by the GAO (US GAO 2008). Patients were known to the clinic with a 36-month mean duration of prior treatment following exposure to WDB.
(§3) For the experimental protocol, subjects self-administered 50 mcg VIP (Aviptadil; Bachem AG, Switzerland) four times a day via nasal aerosol and returned to the clinic to review symptoms and clinical course, and undergo interval physical exam and laboratory exam at scheduled intervals. Clinical data were collected before any treatments, or baseline (BASE); after all other treatments and before VIP (AC2); after 12 months of VIP (12M); and after 18 months of VIP (18M). Data collection included physician recorded symptoms in a medical history (Table 2); levels of VIP, MSH, C4a, TGF beta-1, VEGF, MMP9, estradiol, testosterone, 25-0H vitamin D, lipase, CBC and CMP. Measurement of CD4+CD25+T regulatory (Treg) cells was not available at BASE; Treg testing was performed at AC2 and 18 month time periods. Laboratory testing for all analytes was performed by high complexity CLIA-certified labs including LabCorp and Quest Diagnostics. All data were compared to either established normative values or values from prior testing of healthy control populations (N=850) performed at this clinic. Data were analyzed by two-sample T-tests for each of two study time points and one-sample T-tests that compared the specified data to the corresponding historical control values. A Bonferroni correction to the p-values was done to control the experiment-wise error rate. A p value of <0.001 was chosen as the determinant of significance for the study.

[2] = tested on: patients with clinically-confirmed CIRS-WDB; assay: Open-label VIP replacement trial: laboratory parameters (CLIA labs); conditions: for Estra-M (estradiol in males) mean value: Control 23.1, Base 36, AC2 30.3; for VIP level mean value: Control 28.9, Base 9.3, AC2 14.4; for Estra-F (estradiol in females) mean value: Control 29.8, Base 28, AC2 26.6; for Lipase mean value: Control 30.1, Base 24.2, AC2 30.8; for MSH mean value: Control 37.2, Base 9.4, AC2 16.8; for VIT D (25-OH vitamin D) mean value: Control 38.4, Base 19.4, AC2 24.1; for VEGF mean value: Control 65, Base 61, AC2 95.3; for Test-F (testosterone in females) mean value: Control 282, Base 20, AC2 18.9; for MMP-9 mean value: Control 332, Base 628, AC2 358; for Test-M (testosterone in males) mean value: Control 415, Base 298.8, AC2 293.5; for TGF (TGF beta-1) mean value: Control 2380, Base 12579, AC2 13015; for C4a mean value: Control 2830, Base 8346, AC2 4662
Text: as §1, §2, §3

[3] = tested on: patients with clinically-confirmed CIRS-WDB; assay: Stress echocardiography, pulmonary artery systolic pressure (PASP) in exercise; format: in vivo, human; conditions: all subjects, within two months; entry criterion rise exceeding 8 mm Hg versus resting PASP
Text: Entry criteria also included a rise in pulmonary artery systolic pressure (PASP) in exercise as measured by stress echocardiography that exceeded 8 mm Hg as compared to resting PASP. Standard Bruce protocols were employed during stress echocardiography testing. […] All patients achieved target heart rate; none developed ischemic changes on EKG or chest pain during stress testing.

[4] = tested on: CD4+CD25+ Treg cells; assay: Flow cytometry of CD4+CD25+ T regulatory (Treg) cells; format: in vivo, human; conditions: 18 month versus AC2, increase from a mean of 8.9
Text: CD4^+ CD25^+ Treg cells in CIRS patients can be measured by flow cytometry. CD4^+ CD25^+ Treg cells mature in response to an inflammatory stimulation, and in particular, in response to increasing levels of TGF-β1. Matured CD4^+ CD25^+ Treg cells migrate to tissues to suppress inflammation and autoimmunity. However, if there is a pre-existing inflammatory response ongoing in tissues, CD4^+ CD25^+ Treg cells may turn into autoreactive T cells. Therefore, the determination of CD4^+ CD25^+ Treg cells in blood as well as in tissues may be helpful in assessing the status of inflammation in CIRS patients.

[5] = tested on: patients with clinically-confirmed CIRS-WDB; assay: Open-label VIP replacement trial: safety and tolerability
Text: as §3

[6] = tested on: human volunteers; assay: Initial use of low dose VIP by nasal instillation (earlier trials)
Text: as §1

[7] = initial use of low dose VIP by nasal instillation

## CC[C@H](C)[C@H](NC(=O)[C@H](CO)NC(=O)[C@H](CC(N)=O)NC(=O)[C@H](CC(C)C)NC(=O)[C@H](Cc1ccc(O)cc1)NC(=O)[C@H](CCCCN)NC(=O)[C@H](CCCCN)NC(=O)[C@@H](NC(=O)[C@H](C)NC(=O)[C@H](CCSC)NC(=O)[C@H](CCC(N)=O)NC(=O)[C@H](CCCCN)NC(=O)[C@H](CCCNC(=N)N)NC(=O)[C@H](CC(C)C)NC(=O)[C@H](CCCNC(=N)N)NC(=O)[C@@H](NC(=O)[C@H](Cc1ccc(O)cc1)NC(=O)[C@H](CC(N)=O)NC(=O)[C@H](CC(=O)O)NC(=O)[C@@H](NC(=O)[C@H](Cc1ccccc1)NC(=O)[C@@H](NC(=O)[C@H](C)NC(=O)[C@H](CC(=O)O)NC(=O)[C@H](CO)NC(=O)[C@@H](N)Cc1c[nH]cn1)C(C)C)[C@@H](C)O)[C@@H](C)O)C(C)C)C(=O)N[C@@H](CC(C)C)C(=O)N[C@@H](CC(N)=O)C(N)=O [VIP, Aviptadil]
[1]; 20 patients, open-label trial
  Quality of life: enhanced quality of life
[1]; after 12 months of VIP, 50 mcg four times a day nasal aerosol
  SX (symptoms) mean value: 5.5
[1]; after 18 months of VIP
  SX (symptoms) mean value: 3.4
[1]; all treated patients
  Symptom reduction versus controls: Symptom reduction to equal those of controls
[2]; VIP nasal spray, open-label trial
  Inflammatory parameters versus controls: not significantly different from controls
[2]; after 12 months of VIP
  Estra-M (estradiol in males) mean value: 27.7
  VIP level mean value: 12.3
  Estra-F (estradiol in females) mean value: 27.8
  Lipase mean value: 30.7
  MSH mean value: 17.3
  VIT D (25-OH vitamin D) mean value: 38.3
  VEGF mean value: 73.4
  Test-F (testosterone in females) mean value: 22.6
  MMP-9 mean value: 302
  Test-M (testosterone in males) mean value: 546.7
  TGF (TGF beta-1) mean value: 5359
  C4a mean value: 5679
[2]; after 18 months of VIP
  Estra-M (estradiol in males) mean value: 22.8
  VIP level mean value: 16.6
  Estra-F (estradiol in females) mean value: 28.9
  Lipase mean value: 27.9
  MSH mean value: 18.2
  VIT D (25-OH vitamin D) mean value: 39.3
  VEGF mean value: 66.2
  Test-F (testosterone in females) mean value: 25.2
  MMP-9 mean value: 290
  Test-M (testosterone in males) mean value: 511.5
  TGF (TGF beta-1) mean value: 4040
  C4a mean value: 3306
[2]; end of the trial, baseline differed from controls at p<0.01
  Patient values versus controls by the end of the trial (symptoms, MSH, VIP, MMP9, C4a, TGF-β1, 25-OH Vitamin D, testosterone in males): not statistically different from controls, except for VIP and MSH
[3]
  Elevated PASP in stress exercise testing reduced to: < 8 mm Hg
[4]
  CD4+CD25+ Treg cells, mean: 22.5
[5]; 18 month study, 20 patients, nasal aerosol
  Tolerability: tolerated the drug well
[5]; during the trial
  Changes in CBC and CMP: No changes
[5]; over the course of the 18 month study
  Dropouts due to adverse effects: no dropouts due to adverse effects
[5]; resolved without cessation of use of VIP
  Elevated lipase, cases: One patient had a transient elevated level of lipase without abdominal pain
[5]; whole cohort
  Lipase levels during the trial: did not rise
[6]; human volunteers, initial use
  Safety of low dose VIP by nasal instillation: shown to be safe
[6]; [7]
  Effect on pulmonary artery responses to exercise: blunted accentuated pulmonary artery responses to exercise
  Effect on symptoms: prompt reduction in symptoms
